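Protocol summary: plate cells (96-well), add compound at 5 concentrations, incubate 48 h, interpolate endpoints linearly. At the GI50, growth is halved. TGI marks complete inhibition of growth.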
Columns and labels:
Assay in all cases: NCI tumour cell line growth inhibition, 48 h
[1] = system: NCI-H23 lung
[2] = system: HS 578T breast
[3] = system: UACC-62 melanoma
[4] = system: HCT-116 colon
[5] = system: NCI-H226 lung
[6] = system: NCI-H522 lung
[7] = system: RXF 393 renal
[8] = system: A549 NSCLC
[9] = system: HT29 colon
[10] = system: COLO 205 colon

Row | Compound | TGI [1] | TGI [2] | TGI [3] | TGI [4] | TGI [5] | TGI [6] | TGI [7] | TGI [8] | TGI [9] | TGI [10] | GI50 [5]
1 | Nn1c(Cc2ccc(Cl)cc2)n[nH]c1=O | > 100 µM | > 100 µM | > 100 µM | > 100 µM | > 100 µM | > 100 µM | > 100 µM | > 100 µM | > 100 µM | > 100 µM | –
2 | CCNC(=S)N/N=C/c1cc(OC)ccc1O | > 100 µM | > 100 µM | > 100 µM | > 100 µM | > 100 µM | > 100 µM | > 100 µM | > 100 µM | > 100 µM | > 100 µM | –
3 | CC(C)(C)c1cc(C(O)(C(=O)O)C(=O)O)cc(C(C)(C)C)c1O | > 100 µM | > 100 µM | > 100 µM | > 100 µM | > 100 µM | > 100 µM | > 100 µM | > 100 µM | > 100 µM | > 100 µM | –
4 | NNC(=O)CC(=O)Nc1ccc(Cl)cc1 | > 100 µM | > 100 µM | > 100 µM | > 100 µM | > 100 µM | > 100 µM | > 100 µM | > 100 µM | > 100 µM | > 100 µM | –
5 | CC1(C)C2CCC1(CS(=O)(=O)Nc1ccccc1)C(=O)C2 (stereo unspecified) | > 100 µM | > 100 µM | > 100 µM | > 100 µM | > 100 µM | > 100 µM | > 100 µM | > 100 µM | > 100 µM | > 100 µM | –
6 | CC(=O)Nc1ccc2c(C(=O)O)c(C)c(=O)[nH]c2n1 | > 100 µM | > 100 µM | > 100 µM | > 100 µM | > 100 µM | > 100 µM | > 100 µM | > 100 µM | > 100 µM | > 100 µM | –
7 | CCCC(Sc1nc(N)nc2nc[nH]c12)C(=O)O (stereo unspecified) | > 100 µM | > 100 µM | > 100 µM | > 100 µM | > 100 µM | > 100 µM | > 100 µM | > 100 µM | > 100 µM | > 100 µM | –
8 | Cc1c(-c2ccccc2)c(C#N)c2nnn(-c3ccccc3)c(=O)n12 | > 100 µM | > 100 µM | > 100 µM | > 100 µM | > 100 µM | > 100 µM | > 100 µM | > 100 µM | > 100 µM | > 100 µM | –
9 | O=C(O)CC(NC(=O)Nc1ccc([N+](=O)[O-])cc1)C(=O)Nc1ccc([N+](=O)[O-])cc1 (stereo unspecified) | > 100 µM | > 100 µM | > 100 µM | > 100 µM | > 100 µM | > 100 µM | > 100 µM | > 100 µM | > 100 µM | > 100 µM | –
10 | COc1cc2c(cc1OCCCC(=O)Nc1cc(C(=O)Nc3cc(C(=O)Nc4cc(C(=O)NCCCN(C)C)n(C)c4)n(C)c3)n(C)c1)N=C[C@@H]1CCCN1C2=O | 4.4 µM | > 25.2 µM | 6.53 µM | 3.45 µM | 37.9 µM | 0.427 µM | 3.15 µM | 36.1 µM | 4.1 µM | 3.15 µM | –
11 | O=C(Nc1ccccc1)c1cc2c(cc1Cl)Sc1nccn1S2(=O)=O | 53.8 µM | > 84.4 µM | 38.4 µM | > 54.4 µM | > 100 µM | 38.6 µM | > 71.2 µM | > 100 µM | > 75.6 µM | > 56.6 µM | 28.6 µM
12 | CCCC1NC(C#N)(C#N)C(CCC)NC1(C#N)C#N (stereo unspecified) | > 51.3 µM | 22.6 µM | > 100 µM | > 37.1 µM | 81.1 µM | 1.51 µM | > 66.9 µM | > 100 µM | > 55.7 µM | 12.7 µM | –
13 | O=C1Cc2c(-c3ccc(Cl)cc3)cc(-c3ccccc3)nc2-c2ccccc2N1 | 33.8 µM | 29.1 µM | > 58.9 µM | 15.3 µM | 44.9 µM | 32.9 µM | 20.3 µM | 23.2 µM | > 42.8 µM | 12.9 µM | –
14 | CC(C)CC(=O)NC(Nc1ccc(S(=O)(=O)Nc2ncccn2)cc1)(C(F)(F)F)C(F)(F)F | > 100 µM | > 100 µM | > 100 µM | > 100 µM | > 100 µM | > 100 µM | > 100 µM | > 100 µM | > 100 µM | > 100 µM | –
15 | O=C1COC(c2ccccc2O)=NN1CCCN1CCCC1 | > 100 µM | > 100 µM | > 100 µM | > 100 µM | > 100 µM | > 100 µM | > 100 µM | > 100 µM | > 100 µM | > 100 µM | –
16 | Oc1ccc2c(c1)-c1c(c3cc(O)ccc3n1CCN1CCOCC1)CC2 | 73.5 µM | > 100 µM | 32.9 µM | 44.8 µM | 41.4 µM | 40.4 µM | 75.8 µM | > 100 µM | 59.8 µM | 32.2 µM | –

Row | Compound | TGI [1] | TGI [2] | TGI [3] | TGI [4] | TGI [5] | TGI [6] | TGI [7] | TGI [8] | TGI [9] | TGI [10] | GI50 [5]
17 | O=[N+]([O-])c1ccc2c(c1)nc(Cc1ccccc1)n2C[C@@H]1CCCN2CCCCC12 (stereo partly specified) | > 100 µM | > 100 µM | 36.3 µM | > 100 µM | > 100 µM | 80 µM | 59.6 µM | > 100 µM | 49.2 µM | 37.4 µM | –
18 | N#CCCNCCN(CCN(C(=O)Nc1ccccc1)c1ccccc1)C(=O)Nc1ccccc1 | > 100 µM | > 100 µM | > 100 µM | > 100 µM | > 100 µM | 54.4 µM | > 100 µM | > 100 µM | > 100 µM | 46.3 µM | –
19 | CN(C)CCCn1c(Cc2ccccc2)nc2cc(C(F)(F)F)ccc21 | 83.2 µM | > 100 µM | 34.4 µM | 33.2 µM | > 100 µM | 48.3 µM | 67.8 µM | 31.8 µM | 42.4 µM | 34.7 µM | –
20 | COC(c1ccsc1)C(C#N)(C#N)N=Cc1ccsc1 (stereo unspecified) | 26.2 µM | 61.7 µM | 28.7 µM | 25.4 µM | 54.9 µM | 21.3 µM | 27 µM | > 100 µM | 25.1 µM | 33.1 µM | –
21 | O=C1NN=C(c2ccc(Cl)cc2)CC1C1C(=O)N(c2ccccc2)N=C1c1ccccc1 (stereo unspecified) | 62.8 µM | 93.9 µM | 72.8 µM | 44.8 µM | 91.8 µM | 65.2 µM | 70.9 µM | > 100 µM | > 100 µM | > 100 µM | –
22 | COc1cc(/C=C2\C[C@H]3[C@@H]4CC=C5C[C@@H](N6CCCC6)CC[C@]5(C)[C@H]4CC[C@]3(C)[C@H]2O)cc(OC)c1OC | 29.9 µM | 25.2 µM | 32.7 µM | 27.6 µM | 39.7 µM | 26.7 µM | 20.2 µM | 33.1 µM | 14.5 µM | 36.5 µM | –
23 | O=C(NCC1Nc2ccncc2S(=O)(=O)N1)c1ccc(Br)cc1 (stereo unspecified) | > 100 µM | 83.1 µM | > 100 µM | > 100 µM | > 100 µM | > 100 µM | > 100 µM | > 100 µM | > 100 µM | > 100 µM | –
24 | Cc1cc(NS(=O)(=O)c2ccc(NC(=O)c3ccc4nc5ccccc5c(Nc5ccc(S(=O)(=O)N=C(N)N)cc5)c4c3)cc2)no1 | 38.6 µM | 72.7 µM | 46.5 µM | 35.6 µM | 28.5 µM | 34.8 µM | 31.1 µM | 31.4 µM | 38.2 µM | 38.5 µM | –
25 | CCOC(=O)c1c(SC(=O)c2cc(OC)c(OC)c(OC)c2)n(-c2ccccc2)c(=S)n(-c2ccccc2)c1=O | > 100 µM | > 100 µM | > 100 µM | > 100 µM | > 100 µM | > 100 µM | > 100 µM | > 100 µM | > 100 µM | > 100 µM | –
26 | Brc1ccc2c(-c3nc(-c4c[nH]c5ccccc45)cs3)c[nH]c2c1 | > 88 µM | > 100 µM | > 100 µM | > 100 µM | > 100 µM | > 100 µM | > 68.7 µM | 74.6 µM | > 100 µM | > 79.7 µM | –
27 | CC(=O)N1N=C(c2c(O)ccc3ccccc23)CC1C(=O)c1ccco1 (stereo unspecified) | 84.6 µM | > 100 µM | 32.8 µM | 50.3 µM | > 100 µM | > 100 µM | > 100 µM | > 100 µM | > 100 µM | 86 µM | –
28 | CC1=NN(c2cccc(Cl)c2)C2(C1)C(Cl)C(=O)N2c1nc2ccccc2s1 (stereo unspecified) | 49.5 µM | > 100 µM | > 100 µM | 40.4 µM | 43.4 µM | 56.6 µM | 59.1 µM | 76.2 µM | > 100 µM | 31.9 µM | –
29 | CC/C(Cl)=N\OC(=O)Nc1ccc(OC)cc1 | 38.6 µM | 52 µM | 24.6 µM | 12 µM | 28.3 µM | 2.18 µM | 6.52 µM | 32.6 µM | 33.8 µM | 3.92 µM | –
30 | O=C(O)Cc1ccc(Oc2nc3ccccc3nc2-c2cccs2)cc1 | > 100 µM | > 100 µM | > 100 µM | > 100 µM | > 100 µM | > 100 µM | 56.5 µM | > 100 µM | > 100 µM | 80.1 µM | –
31 | CCCSc1cc(Cl)c(C)cc1S(=O)(=O)n1ccnc1OCCCN(C)C | > 100 µM | > 100 µM | > 100 µM | > 100 µM | > 100 µM | > 100 µM | > 100 µM | > 100 µM | > 100 µM | > 100 µM | –

From PubChem BioAssay (NCI)
